In patent publication US11459586B2, “Methods for increasing efficiency of nuclease-mediated gene editing in stem cells” (President and Fellows of Harvard College, priority 2016, dated 2022):
Where two headings read alike, the source gives them in different places. Peptide text beside a SMILES is read from it. * marks the point of attachment. Cbz = O=C(OCc1ccccc1)*; CH2F = FC*

Experiments:
human iPSC [1] = assay: mThy1 gene targeting in hiPSC with chemical inhibitors added after nucleofection (flow cytometry); format: cell-based; settings: for mThy1 gene targeting efficiencies: PGP1 hiPSC, administered after plasmid nucleofection, indicated concentrations (FIG. 9D)
Method: FIGS. 9A-G. Effects of chemical and genetic inhibitors on mThy1 gene targeting in hiPSC. FIG. 9A. Mouse Thy1 gene targeting scheme. Human iPSC were nucleofected with the mThy1 targeting vector system plasmids and analyzed by flow cytometry five days later. The percentages of mThy1^+hThy1^−, mThy1^+hThy1^+, and mThy1^−hThy1^− cells for each sample (gated on live single cells) are graphed. Lines mark the percentage values for the control sample. FIGS. 9B-9D. Human iPSC were nucleofected with: 2 μg mThy1 targeting vector; 0.5 μg Cas9 plasmid; and 1.5 μg of sgRNA plasmids. The sample was divided into multiple wells and cultured in plain media (mTeSR1+10 μM Y-27632 ROCK inhibitor) supplemented with the indicated chemical inhibitor for three days. 20 μM pifithrin α, 200 μM peptide V5 (VPMLK, SEQ ID NO:31), 200 μM peptide control (IPMIK, SEQ ID NO:32), 50 μM TEMPOL, or the indicated concentrations of SCR7 or L755507 were used. FIG. 9B, mThy1^+hThy1^− (bottom portion of each bar in each graph), mThy1^+hThy1^+ (top portion of each bar in each graph). FIG. 9C, mThy1^+hThy1^− (bottom portion of each bar in each graph), mThy1^+hThy1^+ (top portion of each bar in left and center graphs, middle portion of each bar in right graph), and mThy1^−hThy1^− (top portion of each bar in right graph). FIG. 9D, mThy1^+hThy1^− (bottom portion of each bar in each graph), mThy1^+hThy1^+ (center portion of each bar in each graph), and mThy1^−hThy1^− (top portion of each bar in each graph). FIGS. 9E-9F. Human iPSC were nucleofected with: 2 μg mThy1 targeting vector plasmid; 0.5 μg Cas9 plasmid; 1 μg of sgRNA plasmids; and 0.5 μg of plasmid expressing the indicated DNA repair gene or pUC19 control (“Cas9 only”). For FIG. 9E, cultures were treated with 50 μM zVAD and 10 μM SB203580 post transfection. mThy1^+hThy1^− (bottom portion of each bar in each graph), mThy1^+hThy1^+ (top portion of each bar in left and center graphs, middle portion of each bar in right graph), and mThy1^−hThy1^− (top portion of each bar in right graph). FIG. 9F, mThy1^+hThy1^− (bottom portion of each bar in each graph), mThy1^+hThy1^+ (top portion of each bar in left and center graphs, middle portion of each bar in right graph), and mThy1^−hThy1^− (top portion of each bar in right graph). FIG. 9G. Human iPSC were nucleofected with: 2 μg mThy1 targeting vector plasmid; 0.5 μg Cas9 plasmid; and 1.5 μg of sgRNA plasmids. The indicated viral inhibitor genes were cloned into the Cas9 expression vector following an IRES sequence. Cultures were supplemented with 50 μM zVAD post transfection. mThy1^+hThy1^− (bottom portion of each bar in each graph), mThy1^+hThy1^+ (top portion of each bar in left and center graphs, middle portion of each bar in right graph), and mThy1^−hThy1^− (top portion of each bar in right graph).
FIGS. 10A-F. Effect of Caspase and p38 MAPK inhibitors on survival and gene targeting of human iPSC. FIG. 10A and FIG. 10B. Mouse Thy1 gene targeting scheme. Human iPSC were nucleofected with the mThy1 targeting vector, Cas9 nuclease, and Thy1 sgRNA expressing plasmid or pUC19 empty vector. Nucleofected cells were evenly divided and plated onto plain media (mTeSR1+10 μM Y-27632 ROCK inhibitor), or media supplemented with the indicated chemical inhibitor. For specific caspase inhibitors, the principal caspase they target is noted in parentheses. As observed in previous reports, most of the nuclease-mediated cell death occurred between days 1-2 post transfection, and the proportions of mThy1^+ cells remained stable beyond day 5. FIG. 10C. Two days after nucleofection, viable cells were counted. Error bars indicate s.e.m. of technical duplicates. Lines mark the count levels for nucleofected cells in plain media with or without sgRNA. FIG. 10D. Five days after transfection, cells were analyzed by flow cytometry for mThy1 and hThy1 expression. The percent of mThy1^+hThy1^− (bottom of each bar) and mThy1^+hThy1^+ (top of each bar) cells of live single cells is indicated. […]

human iPSC [2] = format: cell-based; settings: for rescue of hiPSC from cell death (anoikis) after nucleofection: viable cells two days after nucleofection, sgRNA plasmid or pUC19 control
Method: FIGS. 10A-F. Effect of Caspase and p38 MAPK inhibitors on survival and gene targeting of human iPSC. FIG. 10A and FIG. 10B. Mouse Thy1 gene targeting scheme. Human iPSC were nucleofected with the mThy1 targeting vector, Cas9 nuclease, and Thy1 sgRNA expressing plasmid or pUC19 empty vector. Nucleofected cells were evenly divided and plated onto plain media (mTeSR1+10 μM Y-27632 ROCK inhibitor), or media supplemented with the indicated chemical inhibitor. For specific caspase inhibitors, the principal caspase they target is noted in parentheses. […] FIG. 10C. Two days after nucleofection, viable cells were counted. Error bars indicate s.e.m. of technical duplicates. Lines mark the count levels for nucleofected cells in plain media with or without sgRNA. FIG. 10D. Five days after transfection, cells were analyzed by flow cytometry for mThy1 and hThy1 expression. The percent of mThy1^+hThy1^− (bottom of each bar) and mThy1^+hThy1^+ (top of each bar) cells of live single cells is indicated. Lines mark the levels for cells in plain media. […] FIG. 10E. FACS plots of human iPSC transfected with the mThy1 targeting vector, Cas9 nuclease, and Thy1 Left and Right sgRNAs. Cells were subsequently cultured for 5 days in plain media±50 μM zVAD and ±10 μM SB203580. FIG. 10F. Human iPSC cultures were single cell FACS sorted into 96-well tissue culture plates containing a MEF feeder layer and hES media supplemented with SMC4 inhibitors±50 μM zVAD for eight days. Ten days after sorting, the number of surviving iPSC colonies was counted (from 190 cells sorted). PGP1 hiPSC lines created using retroviral vectors or non-integrating methods were both tested.
Pluripotency of iPSC cultures was verified by flow cytometry staining using anti-human Tra-1/60 PE (TRA-1-60, BD) and anti-human Oct3/4 eFluor 660 (EM92, eBioscience) with the fixation buffer sold under the trademark BD CYTOFIX™ and permeabilization buffer sold under the trademark PHOSFLOW™ Perm/Wash buffers. Human g-band karyotype analysis was done by Cell Line Genetics. Viable cell counts were measured with the cell analyzer sold under the trademark MUSE® Count & Viability Assay kit (EMD Millipore). Anti-human HLA-A2 APC (BB7.2) and anti-human HLA-BC PE (B1.23.2) were purchased from eBioscience. Human iPSC cultures were treated with 50 ng/ml recombinant interferon gamma (eBioscience) for 2 days prior to HLA staining.
Plasmids were purified using the plasmid DNA purification kit sold under the trademark Qiagen ENDOFREE® Plasmid Maxi kit and nucleofected into iPSC cells using the Lonza 4D-Nucleofector X unit (Buffer P3, Program CB-150). For each 20 μl nucleofection reaction, 0.2-0.5×106 iPSC were transfected with up to 4 μg of plasmid DNA. Post-nucleofection, iPSC were plated onto solubilized basement membrane matrix secreted by Engelbreth-Holm-Swarm (EHS) mouse sarcoma cells sold under the trademark […]®-coated wells containing feeder-free cell culture medium sold under the trademark MTESR1™ media with 10 μM Y-27632 plus other chemical inhibitors when noted. Later experiments included 50 μM zVAD-fmk (Bachem) for 1 day and 10 μM SB203580 (Biovision) for 4-5 days post transfection (see FIGS. 5, 6, 11, and 12). For FIG. 6 (ssODN transfection), 200 ng/ml recombinant B 18R (eBioscience), was also added to the culture for 5 days post transfection.
The following inhibitors were added to the hiPSC culture at the concentrations and time periods indicated in the Examples below. • 1. p53 or Bax inhibitors: cyclic pifithrin α (StemCell Technologies); pifithrin (Tocris); peptide V5, peptide control, iMAC1 and iMAC2 (EMD Millipore); N-acetyl cysteine and 4-hydroxy TEMPO (TEMPOL) (Sigma). • 2.

[3] = 10 μM SB203580 added to hiPSC media after nucleofection

CCCCCCNC(=O)Nc1ccc(S(=O)(=O)Nc2ccc(CCNC[C@H](O)COc3ccc(O)cc3)cc2)cc1 [L755507]
mThy1 gene targeting efficiencies (human iPSC [1]): neither the DNA ligase IV inhibitor SCR7 (Maruyama et al., 2015) nor the β3-adrenergic receptor agonist L755507 (Yu et al., 2015) improved mThy1 gene targeting efficiencies

Cc1ccc(C(=O)Cn2c3c(sc2=N)CCCC3)cc1 [Pifithrin α]
mThy1 gene targeting in hiPSC (human iPSC [1]; 20 μM pifithrin α in media for three days after nucleofection): did not enhance hiPSC gene targeting

C[S+]([O-])c1ccc(-c2nc(-c3ccncc3)c(-c3ccc(F)cc3)[nH]2)cc1 (stereo not shown) [SB203580]
gene targeting efficiency (human iPSC [1]; [3]): did enhance gene targeting efficiency
cell survival (human iPSC [2]; [3]): did not affect cell survival

O=c1[nH]c(=S)[nH]c(N=Cc2ccccc2)c1N=Cc1ccccc1 [SCR7]
mThy1 gene targeting efficiencies (human iPSC [1]): neither the DNA ligase IV inhibitor SCR7 (Maruyama et al., 2015) nor the β3-adrenergic receptor agonist L755507 (Yu et al., 2015) improved mThy1 gene targeting efficiencies

CC1(C)CC(O)CC(C)(C)N1[O] [TEMPOL, 4-hydroxy TEMPO]
mThy1 gene targeting in hiPSC (human iPSC [1]; 50 μM TEMPOL in media for three days after nucleofection): no effect

COC(=O)CC[C@H](NC(=O)[C@H](C)NC(=O)OCc1ccccc1)C(=O)N[C@H](C(=O)N[C@@H](CC(=O)OC)C(=O)CF)C(C)C [zAEVD-fmk] (Cbz-AE(OMe)VD(OMe)-CH2F)
rescue of hiPSC from cell death (anoikis) after nucleofection (human iPSC [2]): prevented anoikis

COC(=O)CC[C@H](NC(=O)[C@H](CC(=O)OC)NC(=O)OCc1ccccc1)C(=O)N[C@H](C(=O)N[C@@H](CC(=O)OC)C(=O)CF)C(C)C [zDEVD-fmk]
anoikis rescue (human iPSC [2]; lower concentration, 25 μM): did not show as much anoikis rescue
rescue of hiPSC from cell death (anoikis) after nucleofection (human iPSC [2]): prevented anoikis

COC(=O)CC[C@H](NC(=O)[C@H](CC(C)C)NC(=O)OCc1ccccc1)C(=O)N[C@@H](Cc1cnc[nH]1)C(=O)N[C@@H](CC(=O)OC)C(=O)CF [zLEHD-fmk] (Cbz-LE(OMe)HD(OMe)-CH2F)
toxicity to hiPSC (human iPSC [2]; after nucleofection, higher concentration than 25 μM (FIG. 10C)): very toxic
toxicity to hiPSC (human iPSC [2]; lower concentration, 25 μM): did not show as much

COC(=O)C[C@H](NC(=O)[C@H](C)NC(=O)[C@@H](NC(=O)OCc1ccccc1)C(C)C)C(=O)CF [zVAD(OMe)-fmk] (Cbz-Val-Ala-Asp(OMe)-CH2F)
rescue of hiPSC from cell death (anoikis) after nucleofection (human iPSC [2]): rescued cells transfected with an sgRNA, and also those transfected with the pUC19 control

VPMLK (peptide V5)
mThy1 gene targeting in hiPSC (human iPSC [1]; 200 μM peptide V5 in media for three days after nucleofection): only a very slight improvement in gene targeting
